{"source": "patent US20070264661A1", "about": "“METHOD FOR RAPID IDENTIFICATION OF MOLECULES WITH FUNCTIONAL ACTIVITY TOWARDS BIOMOLECULAR TARGETS” (Isis Pharmaceuticals, Inc., priority 2003, published 2007)", "key": {"[1]": {"test_system": "E. coli 16S ribosomal A-site (16S) 27-mer synthetic RNA construct", "assay": "ESI-FTICR MS screening for noncovalent binding to the 16S RNA construct", "protocol": "(§1) Samples were brought to 0.1% heptafluorobutyric acid (HFBA) by the addition of 1% HFBA. A Gilson HPLC system consisting of four 306 pumps and a Gilson 215 liquid handler was used to perform the separations. Sample injection volume was 3 mL. Separation was carried out using a 250×10 mm Phenomenex Aqua C18 column, with a 50×10 mm guard column. Components were eluted using 0.1% HFBA and a gradient of 0 to 40% Acetonitrile (ACN) at a flow rate of 3 mL/min. over 45 minutes. 1 mL fractions were collected every 20 seconds and were assayed without further preparation.\n(§2) RNA constructs 16S and 16Sc (FIG. 1A) were obtained from Dharmacon Research, Boulder, Colo. The 16Sc construct contains an 18-atom hexaethylene glycol chain attached to the 5′ terminus of the oligonucleotide as supplied by the manufacturer. The addition of this chain results in a net addition of C12H24O9 P (monoisotopic mass calc 344.1236) to the 16Sc oligonucleotide sequence shown in FIG. 1. The RNA was deprotected according to the manufacturer's directions and ethanol precipitated twice from 1 M ammonium acetate. Paromomycin (MW=615.2963 Da), was obtained from Sigma (St. Louis, Mo.) and ICN (Costa Mesa, Calif.).\nThe construct shown on the left in FIG. 1A (16S) is the 27-mer synthetic RNA containing the E. coli 16S ribosomal A-site (Purohit, P.; Stern, S. Nature 1994, 370, 659-662). Two positions in the E. coli 16S RNA are noted numerically as 1408 and 1492, referring to the location of these residues in the intact 16S rRNA. These positions have been previously shown to be critical for aminoglycoside recognition and binding (Griffey, R. H.; Hofstadler, S. A.; Sannes-Lowery, K. A.; Ecker, D. J.; Crooke, S. T. Proc. Natl. Acad. Sci. U. S. A. 1999, 96, 10129-10133; Fourmy, D.; Recht, M. I.; Blanchard, S. C.; Puglisi, J. D. Science (Washington, D.C.) 1996, 274, 1367-1371).\nMass spectrometry was performed on a modified Bruker Daltonics (Billerica, Mass.) Apex II 70e electrospray ionization Fourier transform ion cyclotron resonance mass spectrometer equipped with an actively shielded 7 tesla superconducting magnet. Experiments were performed with the source at room temperature, the skimmer potential was held at 0 volts, the capillary exit potential was −126 volts, and other experimental parameters were as described in detail elsewhere (Sannes-Lowery, K. A.; Drader, J. J.; Griffey, R. H.; Hofstadler, S. A. TrAC, Trends Anal. Chem. 2000, 19, 481-491). Binding reactions were comprised of 15 μl of a solution containing 2.5 μM 16S and 16Sc in 100 mM NH4OAc and 33% isopropyl alcohol and 2 μl of the LC fraction in a 96-well microtiter plate. […] The plates were vortexed briefly, and then incubated for 60 minutes at room temperature prior to analysis. Sample aliquots were injected directly from 96-well microtiter plates using a CTC HTS PAL autosampler (LEAP Technologies, Carrboro, N.C.).\nThe presence of both a specific (16S) and non-specific (16Sc) RNA construct enables the simultaneous determination of binding specificity between target and ligand. In the absence of ligand, the initial peak intensity ratio of 16Sc/16S was determined to be 0.3 as shown in the control spectrum shown in FIG. 1B. The peak intensity ration of 16Sc/16S should remain constant in the absence of ligand binding activity. If a ligand specifically binds the 16S RNA target, the peak intensity ratio of 16Sc/16S will […], while a ligand that binds non-specifically to both targets will not cause a significant change in the peak intensity ratio of 16Sc/16S. Thus, monitoring the 16Sc/16S peak intensity ratio is a convenient metric for characterizing binding specificity."}, "[2]": {"test_system": "16S control construct (16Sc)", "assay": "ESI-FTICR MS screening for noncovalent binding to the 16Sc control RNA construct", "parameters": "species or system E. coli", "protocol": "as §1\nas §2, with “Paromomycin (MW=615.2963 Da), was obtained from Sigma (St. Louis, Mo.) and ICN (Costa Mesa, Calif.).” left out\nThe presence of both a specific (16S) and non-specific (16Sc) RNA construct enables the simultaneous determination of binding specificity between target and ligand. In the absence of ligand, the initial peak intensity ratio of 16Sc/16S was determined to be 0.3 as shown in the control spectrum shown in FIG. 1B. […]"}}}
{"smiles": "NC[C@@H]1O[C@H](O[C@H]2[C@@H](O)[C@H](O[C@@H]3[C@@H](O)[C@H](N)C[C@H](N)[C@H]3O[C@H]3O[C@H](CO)[C@@H](O)[C@H](O)[C@H]3N)O[C@@H]2CO)[C@H](N)[C@@H](O)[C@@H]1O", "note": "[paromomycin, Paromomycin]", "values": [{"measurement": "binding specificity 16S vs 16Sc (result in words)", "setting": "[1]; 2.5 μM 16S and 16Sc, 100 mM NH4OAc, 33% isopropyl alcohol", "result": "binding specifically to 16S RNA"}, {"measurement": "specificity for the 16S RNA target relative to the new molecule (59-fold vs. 5-fold)", "setting": "[1]; fraction 146", "result": "approximately 11 fold"}, {"measurement": "abundance of the specific complex of 16S+paromomycin compared to 16S", "setting": "[1]; fraction 146 (~54.7 minutes) of S. rimosus sp. paromomycinus broth, 5- charge state, FIG. 4", "result": 770, "unit": "%"}, {"measurement": "specificity of binding to the 16S RNA target over the 16Sc RNA construct", "setting": "[1]; fraction 146, ratio of complex abundances 16S vs 16Sc", "result": "approximately 59 fold"}, {"measurement": "peak intensity ratio of 16Sc/16S RNA", "setting": "[1]; fraction #131 (~49.5 minutes), baseline ratio without ligand 0.3", "result": 0.79}, {"measurement": "number of paromomycin molecules binding to 16S and 16Sc RNA", "setting": "[1]; peak of the paromomycin elution (e.g. fraction 138), data not shown", "result": "one to four"}, {"measurement": "abundance of the non-specific complex of 16Sc+paromomycin (relative to 16Sc)", "setting": "[2]; fraction 146 (~54.7 minutes), FIG. 4", "result": 13, "unit": "%"}, {"measurement": "binding to the 16Sc RNA (result in words)", "setting": "[2]; fraction #131, peak would be expected at m/z 1982.11", "result": "does not indicate a peak corresponding to paromomycin binding to the 16Sc RNA"}]}
